# From patent publication US20040228866A1, “Suppressor genes” (Ludwig Institute for Cancer Research, priority 2000, published 2004)
# Tested on: Saos-2 cells
# Test: Apoptosis by flow cytometry (CD20-gated, sub-G1 DNA content) in transfected Saos-2 cells
# Assay type: cell-based
# Description: Apoptosis was identified by the expression of the co-transfected cell surface marker CD20, as described in Samuels-Lev et al. (Mol. Cell 8:781-94, 2001, herein incorporated by reference).
# The number of apoptotic cells was determined using the methods described in Example 6.
# Cells (10^6) were plated 24-48 hours prior to transfection in 10 cm plates. Cells were grown in DMEM supplemented with 10% FCS and transfected with 2 μg of a plasmid expressing CD20 as a transfection marker. Increasing amounts of ASPP1 and ASPP2 were transfected (7.5 μg, 15 μg and 25 μg). 36 hours after the transfection, both attached and floating cells were harvested and analysed using flow cytometry as follows. The transfected cells were gated based on the expression of CD20. The percentage of apoptotic cells was measured by the accumulation of cells with a sub-G1 DNA content derived from at least three individual experiments.
# The transfected cells were analyzed by flow cytometry as described in Example 6.
substance,measurement,setting,value
Bcl-2: anti-apoptotic Bcl-2 oncoprotein,effect on the apoptotic function of wild type p53,co-expressed with p53,decreased
same,effect on the enhancement of p53 apoptotic function by ASPP1 and ASPP2,co-expressed with p53 and ASPP1 or ASPP2,effectively prevented ASPP1 and ASPP2 from enhancing the apoptotic function of p53
same,effect on apoptosis induced by p53H175-L,"transcriptionally inactive, mitochondria-targeted mutant p53, FIG. 9A",failed to decrease or inhibit apoptosis induced by p53H175-L
